Reference: patent US8476449B2, “Radioactive iodine labeled organic compound or salt thereof” (Nihon Medi-Physics Co., Ltd., priority 2010, dated 2013)
Read-outs that look alike come from different tables or passages of the source.

Columns and labels:
[1] = target: tau protein aggregate (Homo sapiens, UniProt P10636); details: tau 0.37 μmol/L, incubated 1 to 1.5 hours, PD-10 column
Method: Mixed solutions of a tau protein aggregate (final concentration 0.37 μmol/L, prepared in Example 9) or an non-aggregated tau protein (final concentration 0.37 μmol/L) and radioactive iodine-labeled compound 1 (2.0 kBq (0.055 μCi)), radioactive iodine-labeled compound 2 (20 kBq (0.55 μCi)) or radioactive iodine-labeled form 3 (2.0 kBq (0.055 μCi)) were incubated for 1 hour to 1.5 hours, and then subjected to size exclusion chromatography (PD-10 column (GE Healthcare Japan), eluent: phosphate buffered-saline (PBS)). Subsequently, the radioactivity of an eluted fraction of the tau protein aggregate or the non-aggregated tau protein was measured in a γ counter.

[2] = mice
Method: Mice were decapitated after 2, 10, 30, and 60 minutes, and then each organ was then removed after blood collection, and radiation counts were measured in a γ counter.

[3] = test system: phosphorylated tau protein; assay: In vitro autoradiography using Alzheimer's disease patient-derived brain slice; type: binding, human; details: hippocampus slice of Alzheimer's disease patient, 3.07 kBq/mL, 1 hour
Method: A postmortem brain slice (paraffin-embedded slice) of the hippocampus of an Alzheimer's disease patient was purchased from BioChain. The brain slice was deparaffinized, a 10% ethanol-containing PBS solution (3.07 kBq/mL (0.083 μCi/mL)) of radioactive iodine-labeled compound 3 was added thereto, and a reaction was carried out for 1 hour. Subsequently, the sample was washed in sequence with a saturated lithium carbonate 50 vol % ethanol aqueous solution (2 minutes×2), a 50 volt ethanol aqueous solution (2 minutes×2), and purified water (30 seconds×2). The sample was exposed to light on an imaging plate for 48 hours, and analyzed using a bioimaging analyzer (model: BAS-5000, Fuji Photo Film Co., Ltd.). Furthermore, an adjacent slice was stained by an anti-phosphorylated tau protein antibody (AT8, Thermo).

[4] = target: T1, Aβ42 aggregate (Homo sapiens, UniProt P05067); assay: Evaluation experiment of binding to amyloid β (filter radioactivity); details: Aβ42 aggregate 30 nmol/L, incubation 3 hours
T1 construct: Aβ (1-42) peptide; purchased Peptide Institute, Inc
Method: 0.5 mg of Aβ (1-42) peptide (purchased from Peptide Institute, Inc.) was dissolved in 2 mL of a PBS buffer containing 1 mmol/L of EDTA and incubated at 37° C. for 42 hours, thus preparing an Aβ42 aggregate. A glass tube was charged with a 10 vol % ethanol aqueous solution (900 μL), Aβ42 aggregate (50 μL, final concentration 30 nmol/L), and radioactive iodine-labeled compound 1, radioactive iodine-labeled compound 2, or radioactive iodine-labeled compound 3 (each 50 μL, 0.018-0.097 μCi), and incubation was carried out for 3 hours. B/F separation was carried out using a cell harvester (Brandel, M-24), and the radioactivity on the filter was measured in a γ counter. The proportion (%) of the radioactivity count on the filter relative to the radioactivity count of each sample used was determined, and binding of each compound to the Aβ42 aggregate was evaluated.
As a control, 4-dimethylamino-4′-iodochalcone (hereinafter, called a chalcone derivative) was prepared in accordance with a method described in the literature (Ono et al., Bioorg Med Chem, 15, 6802-6809, 2007), and the same experiment was carried out (radioactivity count in sample: […]-0.37 kBq (0.023-0.01 μCi)).

[5] = 2 minutes after tail vein administration
[6] = 10 minutes after tail vein administration
[7] = 30 minutes after tail vein administration
[8] = 60 minutes after tail vein administration

T1 sequence (P05067 672-713 limits assumed): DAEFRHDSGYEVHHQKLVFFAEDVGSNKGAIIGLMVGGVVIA
Chain of tau protein aggregate (P10636 1-441 isoform P10636-8): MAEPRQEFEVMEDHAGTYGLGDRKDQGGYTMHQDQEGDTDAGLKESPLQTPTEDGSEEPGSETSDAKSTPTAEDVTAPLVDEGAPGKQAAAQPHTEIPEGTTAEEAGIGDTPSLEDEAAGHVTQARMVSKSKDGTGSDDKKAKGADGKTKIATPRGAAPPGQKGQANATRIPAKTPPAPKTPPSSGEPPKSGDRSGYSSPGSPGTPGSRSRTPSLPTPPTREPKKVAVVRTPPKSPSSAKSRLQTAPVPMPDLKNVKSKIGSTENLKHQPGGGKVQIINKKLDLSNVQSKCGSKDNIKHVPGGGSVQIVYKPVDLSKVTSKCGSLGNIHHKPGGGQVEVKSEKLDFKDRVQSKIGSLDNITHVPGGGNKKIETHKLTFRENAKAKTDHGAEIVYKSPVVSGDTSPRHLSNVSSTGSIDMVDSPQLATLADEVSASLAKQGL

Question: With `O=C1/C(=C/c2ccc(-c3cccc([125I])c3)o2)NC(=S)N1CCc1c[nH]cn1` [Radioactive iodine-labeled compound 3, (Z)-3-(2-(1H-Imidazol-4-yl)ethyl)-5-((5-(3-(^125I)iodophenyl)furan-2-yl)methylene)-2-thioxoimidazolidin-4-one] as the compound, how does the “Radioactivity of eluted fraction: aggregated tau vs non aggregated tau vs buffer” value [1] read?
Answer: specifically binding to a tau protein aggregate

Question: What about the “Amount of radioactivity in organ: Blood” value [2, 5] of the same compound?
Answer: 8.16 ± 1.21 % ID/g

Question: And the “Amount of radioactivity in organ: Blood” value [2, 6]?
Answer: 2.77 ± 0.21 % ID/g

Question: What about the “Amount of radioactivity in organ: Blood” value [2, 7] of the same compound?
Answer: 2.11 ± 0.28 % ID/g

Question: And the “Amount of radioactivity in organ: Blood” value [2, 8]?
Answer: 1.48 ± 0.27 % ID/g

Question: And the “Amount of radioactivity in organ: Brain” value [2, 5]?
Answer: 1.54 ± 0.10 % ID/g

Question: What about the “Amount of radioactivity in organ: Brain” value [2, 6] of the same compound?
Answer: 1.30 ± 0.12 % ID/g

Question: And the “Amount of radioactivity in organ: Brain” value [2, 7]?
Answer: 0.66 ± 0.08 % ID/g

Question: What about the “Amount of radioactivity in organ: Brain” value [2, 8] of the same compound?
Answer: 0.25 ± 0.02 % ID/g

Question: And the “Amount of radioactivity in organ: Heart” value [2, 5]?
Answer: 8.48 ± 0.97 % ID/g

Question: What about the “Amount of radioactivity in organ: Heart” value [2, 6] of the same compound?
Answer: 2.78 ± 0.19 % ID/g

Question: And the “Amount of radioactivity in organ: Heart” value [2, 7]?
Answer: 1.73 ± 0.18 % ID/g

Question: And the “Amount of radioactivity in organ: Heart” value [2, 8]?
Answer: 1.30 ± 0.37 % ID/g

Question: And the “Amount of radioactivity in organ: Intestine” value (“Amount … Intestine” below) [2, 5]?
Answer: 2.55 ± 0.16 % ID/g

Question: What about the “Amount … Intestine” value [2, 6] of the same compound?
Answer: 7.41 ± 1.21 % ID/g

Question: What about the “Amount … Intestine” value [2, 7] of the same compound?
Answer: 17.3 ± 1.67 % ID/g

Question: What about the “Amount … Intestine” value [2, 8] of the same compound?
Answer: 23.6 ± 2.39 % ID/g

Question: What about the “Amount of radioactivity in organ: Kidney” value [2, 5] of the same compound?
Answer: 12.5 ± 0.76 % ID/g

Question: What about the “Amount of radioactivity in organ: Kidney” value [2, 6] of the same compound?
Answer: 7.34 ± 0.70 % ID/g

Question: What about the “Amount of radioactivity in organ: Kidney” value [2, 7] of the same compound?
Answer: 4.97 ± 0.71 % ID/g

Question: And the “Amount of radioactivity in organ: Kidney” value [2, 8]?
Answer: 3.37 ± 0.30 % ID/g

Question: And the “Amount of radioactivity in organ: Liver” value [2, 5]?
Answer: 35.0 ± 2.27 % ID/g

Question: And the “Amount of radioactivity in organ: Liver” value [2, 6]?
Answer: 33.3 ± 1.41 % ID/g

Question: And the “Amount of radioactivity in organ: Liver” value [2, 7]?
Answer: 27.2 ± 2.05 % ID/g

Question: And the “Amount of radioactivity in organ: Liver” value [2, 8]?
Answer: 22.8 ± 2.13 % ID/g

Question: And the “Amount of radioactivity in organ: Lung” value [2, 5]?
Answer: 11.4 ± 1.55 % ID/g

Question: What about the “Amount of radioactivity in organ: Lung” value [2, 6] of the same compound?
Answer: 4.39 ± 0.42 % ID/g

Question: What about the “Amount of radioactivity in organ: Lung” value [2, 7] of the same compound?
Answer: 3.00 ± 0.27 % ID/g

Question: And the “Amount of radioactivity in organ: Lung” value [2, 8]?
Answer: 2.03 ± 0.14 % ID/g

Question: And the “Amount of radioactivity in organ: Pancreas” value (from here on “Amount … Pancreas”) [2, 5]?
Answer: 3.30 ± 0.86 % ID/g

Question: What about the “Amount … Pancreas” value [2, 6] of the same compound?
Answer: 2.15 ± 0.23 % ID/g

Question: And the “Amount … Pancreas” value [2, 7]?
Answer: 1.15 ± 0.18 % ID/g

Question: What about the “Amount … Pancreas” value [2, 8] of the same compound?
Answer: 0.86 ± 0.08 % ID/g

Question: And the “Amount of radioactivity in organ: Spleen” value [2, 5]?
Answer: 9.23 ± 0.63 % ID/g

Question: What about the “Amount of radioactivity in organ: Spleen” value [2, 6] of the same compound?
Answer: 10.9 ± 2.78 % ID/g

Question: What about the “Amount of radioactivity in organ: Spleen” value [2, 7] of the same compound?
Answer: 8.51 ± 2.68 % ID/g

Question: And the “Amount of radioactivity in organ: Spleen” value [2, 8]?
Answer: 8.46 ± 2.57 % ID/g

Question: And the “Amount of radioactivity in organ: Stomach” value (from here on “Amount … Stomach”) [2, 5]?
Answer: 1.33 ± 0.25 % ID/g

Question: And the “Amount … Stomach” value [2, 6]?
Answer: 2.67 ± 1.59 % ID/g

Question: And the “Amount … Stomach” value [2, 7]?
Answer: 4.55 ± 1.28 % ID/g

Question: And the “Amount … Stomach” value [2, 8]?
Answer: 7.45 ± 5.07 % ID/g

Question: What about the “Radioactivity distribution on brain slice vs anti-phosphorylated tau antibody (AT8) staining” value [3] of the same compound?
Answer: coincided with the distribution (FIG. 10b) of the phosphorylated tau protein

Question: And the “Binding to the Aβ42 aggregate (proportion of radioactivity count on the filter)” value [4]?
Answer: significantly lower
